Test results from patent publication US20240309043A1, “THERAPEUTICALLY ACTIVE STEROIDAL DERIVATIVES” (Organon R&D Finland Ltd., priority 2017, published 2024).

Key:
Assay type in all cases: biochemical
[1] = molecular target: T1, recombinant human 17β-HSD2 (Homo sapiens, UniProt P37059); experiment: Inhibition of recombinant human 17β-HSD2; conditions: inhibitor 1 μM; 50 nM estradiol, 1 mM NADH, 30 min RT
T1 construct: made in house; host or cells: Sd9 (Sf9) insect cells, baculovirus (Bac to Bac Expression System)
T1 sequence (P37059 1-387): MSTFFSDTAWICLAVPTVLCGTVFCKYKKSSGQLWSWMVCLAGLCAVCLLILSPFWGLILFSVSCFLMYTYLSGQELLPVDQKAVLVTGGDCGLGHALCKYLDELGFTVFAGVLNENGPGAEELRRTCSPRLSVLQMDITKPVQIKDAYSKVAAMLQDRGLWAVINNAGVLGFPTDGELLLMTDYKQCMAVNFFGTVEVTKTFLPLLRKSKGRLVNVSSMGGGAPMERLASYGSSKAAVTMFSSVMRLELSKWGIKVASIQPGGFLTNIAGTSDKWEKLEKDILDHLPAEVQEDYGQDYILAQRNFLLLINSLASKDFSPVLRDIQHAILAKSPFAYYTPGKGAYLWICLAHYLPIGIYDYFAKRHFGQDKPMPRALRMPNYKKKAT
How it was run: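 Sf9 baculovirus-expressed enzyme membrane extract (4 μg/ml) incubated 30 min at RT in 20 mM KH2PO4 pH 8.5 with 50 nM estradiol (³H-tracer) and 1 mM NADH, inhibitor at 1 μM or 0.1 μM, 1% DMSO. TCA-stopped; estradiol-to-estrone conversion by radio-HPLC, % inhibition = 100 − % conversion.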

[2] = system: HSD1 enzyme that is expressed in rabbit placenta tissue; experiment: Inhibition of E1 to E2 conversion in rabbit placenta tissue homogenate; conditions: inhibitor 100 nM, 30 nM estrone, 30 min
[3] = molecular target: T2, recombinant human 17β-HSD1 (Homo sapiens, UniProt P14061); experiment: Inhibition of recombinant human 17β-HSD1; conditions: inhibitor 100 nM; 30 nM estrone, 1 mM NADPH, 30 min RT
T2 construct: made in house; host or cells: Sd9 (Sf9) insect cells, baculovirus (Bac to Bac Expression System)
T2 sequence (P14061 1-328): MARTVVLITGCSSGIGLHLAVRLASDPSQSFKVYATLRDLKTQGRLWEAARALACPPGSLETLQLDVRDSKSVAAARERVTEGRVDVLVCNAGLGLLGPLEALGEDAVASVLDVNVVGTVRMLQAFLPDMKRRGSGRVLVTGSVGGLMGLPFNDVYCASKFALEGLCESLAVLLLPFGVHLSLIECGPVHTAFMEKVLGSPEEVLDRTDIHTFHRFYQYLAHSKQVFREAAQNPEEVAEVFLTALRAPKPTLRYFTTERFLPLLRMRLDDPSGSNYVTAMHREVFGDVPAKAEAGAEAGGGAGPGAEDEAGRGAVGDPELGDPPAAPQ
How it was run: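 Microsomes from Sf9 cells expressing human 17β-HSD1 (1 μg/ml) were incubated for 30 min at RT in 20 mM KH2PO4 pH 7.4 with 30 nM ³H-estrone, 1 mM NADPH and inhibitor at 1 μM or 0.1 μM (1% DMSO). Estrone-to-estradiol conversion was measured by radio-HPLC after TCA stop, and % inhibition was taken as 100 − % conversion.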

| SMILES | inhibition at 1 µM [1] [%] | Rabbit placenta inhibition % @100 nM [2] [%] | inhibition at 0.1 µM [3] [%] |
| --- | --- | --- | --- |
| Cc1ccc(NC(=O)CC[C@@H]2C/C(=N\O)[C@@]3(C)CCC4c5ccc(Cl)cc5CCC4C23)nn1 (stereo partly drawn) [Compound 76, 3-((13S,15R,E)-3-chloro-17-(hydroxyimino)-13-methyl-7,8,9,11,12,13,14,15,16,17-decahydro-6H-cyclopenta[a]phenanthren-15-yl)-N-(6-methylpyridazin-3-yl)propanamide] | 4 | 56 | 33 |
| C[C@]12CCC3c4ccc(Cl)cc4CCC3C1[C@H](CCC(=O)Nc1ccc(N3CCOCC3)cn1)C/C2=N\O (stereo partly drawn) [Compound 78, 3-((13S,15R,E)-3-chloro-17-(hydroxyimino)-13-methyl-7,8,9,11,12,13,14,15,16,17-decahydro-6H-cyclopenta[a]phenanthren-15-yl)-N-(5-morpholinopyridin-2-yl)propanamide] | 1 | 37 | 76 |
| CN(C(=O)CC[C@@H]1C/C(=N\O)[C@@]2(C)CCC3c4ccccc4CCC3C12)C1CCOCC1 (stereo partly drawn) [Compound 80, 3-((13S,15R,E)-17-(hydroxyimino)-13-methyl-7,8,9,11,12,13,14,15,16,17-decahydro-6H-cyclopenta[a]phenanthren-15-yl)-N-methyl-N-(tetrahydro-2H-pyran-4-yl)propanamide] | 4 | 3 | 32 |
| C[C@]12CCC3c4ccccc4CCC3C1[C@H](CCC(=O)Nc1cccnn1)C/C2=N\O (stereo partly drawn) [Compound 82] | 7 | 18 | 17 |
| CN1CCN(c2ccc(NC(=O)CC[C@@H]3C/C(=N\O)[C@@]4(C)CCC5c6ccccc6CCC5C34)nc2)CC1 (stereo partly drawn) [Compound 86, 3-((13S,15R,E)-17-(hydroxyimino)-13-methyl-7,8,9,11,12,13,14,15,16,17-decahydro-6H-cyclopenta[a]phenanthren-15-yl)-N-(5-(4-methylpiperazin-1-yl)pyridin-2-yl)propanamide] | 6 | 51 | 61 |
| Cc1ccnc(NC(=O)CC[C@@H]2C/C(=N\O)[C@@]3(C)CCC4c5ccccc5CCC4C23)c1 (stereo partly drawn) [Compound 88, 3-((13S,15R,E)-17-(hydroxyimino)-13-methyl-7,8,9,11,12,13,14,15,16,17-decahydro-6H-cyclopenta[a]phenanthren-15-yl)-N-(4-methylpyridin-2-yl)propanamide] | -2 | 10 | 65 |
| CN(C)C(=O)c1ccc(NC(=O)CC[C@@H]2C/C(=N\O)[C@@]3(C)CCC4c5ccccc5CCC4C23)nc1 (stereo partly drawn) [Compound 92, 6-(3-((13S,15R,E)-17-(hydroxyimino)-13-methyl-7,8,9,11,12,13,14,15,16,17-decahydro-6H-cyclopenta[a]phenanthren-15-yl)propanamido)-N,N-dimethylnicotinamide] | 9 | 15 | 37 |
| C[C@]12CCC3c4ccccc4CCC3C1[C@H](CCC(=O)Nc1cc3c([nH]c1=O)CCCC3)C/C2=N\O (stereo partly drawn) [Compound 94, 3-((13S,15R,E)-17-(hydroxyimino)-13-methyl-7,8,9,11,12,13,14,15,16,17-decahydro-6H-cyclopenta[a]phenanthren-15-yl)-N-(2-oxo-1,2,5,6,7,8-hexahydroquinolin-3-yl)propanamide] | 0 | 8 | 63 |
| C[C@]12CCC3c4ccccc4CCC3C1[C@H](CCC(=O)Nc1ccc(C#N)cn1)C/C2=N\O (stereo partly drawn) [Compound 100, N-(5-cyanopyridin-2-yl)-3-((13S,15R,E)-17-(hydroxyimino)-13-methyl-7,8,9,11,12,13,14,15,16,17-decahydro-6H-cyclopenta[a]phenanthren-15-yl)propanamide] | -2 | 12 | 51 |
| C[C@]12CCC3c4ccccc4CCC3C1[C@H](CCC(=O)Nc1ncccc1O)C/C2=N\O (stereo partly drawn) [Compound 102, 3-((13S,15R,E)-17-(hydroxyimino)-13-methyl-7,8,9,11,12,13,14,15,16,17-decahydro-6H-cyclopenta[a]phenanthren-15-yl)-N-(3-hydroxypyridin-2-yl)propanamide] | 20 | 1 | 57 |
| C[C@]12CCC3c4ccccc4CCC3C1[C@H](CCC(=O)Nc1ccccn1)C/C2=N\O (stereo partly drawn) [Compound 104, 3-((13S,15R,E)-17-(hydroxyimino)-13-methyl-7,8,9,11,12,13,14,15,16,17-decahydro-6H-cyclopenta[a]phenanthren-15-yl)-N-(pyridin-2-yl)propanamide] | -13 | 9 | 64 |
| CN1CCN(c2ccc(NC(=O)CC[C@@H]3C/C(=N\O)[C@@]4(C)CCC5c6cccc(F)c6CCC5C34)nc2)CC1 (stereo partly drawn) [Compound 116, 3-((13S,15R,E)-4-fluoro-17-(hydroxyimino)-13-methyl-7,8,9,11,12,13,14,15,16,17-decahydro-6H-cyclopenta[a]phenanthren-15-yl)-N-(5-(4-methylpiperazin-1-yl)pyridin-2-yl)propanamide] | 26 | 76 | 85 |
| CNC(=O)CC[C@@H]1C/C(=N\O)[C@@]2(C)CCC3c4cccc(F)c4CCC3C12 (stereo partly drawn) [Compound 118, 3-((13S,15R,E)-4-fluoro-17-(hydroxyimino)-13-methyl-7,8,9,11,12,13,14,15,16,17-decahydro-6H-cyclopenta[a]phenanthren-15-yl)-N-methylpropanamide] | 2 | −1 | 43 |
| CN(C)C(=O)CC[C@@H]1C/C(=N\O)[C@@]2(C)CCC3c4cccc(F)c4CCC3C12 (stereo partly drawn) [Compound 120, 3-((13S,15R,E)-4-fluoro-17-(hydroxyimino)-13-methyl-7,8,9,11,12,13,14,15,16,17-decahydro-6H-cyclopenta[a]phenanthren-15-yl)-N,N-dimethylpropanamide] | 2 | 9 | 57 |
| C[C@]12CCC3c4cccc(F)c4CCC3C1[C@H](CCC(=O)NC1CCOCC1)C/C2=N\O (stereo partly drawn) [Compound 122, 3-((13S,15R,E)-4-fluoro-17-(hydroxyimino)-13-methyl-7,8,9,11,12,13,14,15,16,17-decahydro-6H-cyclopenta[a]phenanthren-15-yl)-N-(tetrahydro-2H-pyran-4-yl)propanamide] | 6 | 4 | 67 |
| C[C@]12CCC3c4cccc(F)c4CCC3C1[C@H](CCC(=O)NC1CCCCC1)C/C2=N\O (stereo partly drawn) [Compound 124, N-Cyclohexyl-3-((13S,15R,E)-4-fluoro-17-(hydroxyimino)-13-methyl-7,8,9,11,12,13,14,15,16,17-decahydro-6H-cyclopenta[a]phenanthren-15-yl)propanamide] | 4 | 4 | 86 |
| C[C@]12CCC3c4cccc(F)c4CCC3C1[C@H](CCC(=O)Nc1cnccn1)C/C2=N\O (stereo partly drawn) [Compound 126, 3-((13S,15R,E)-4-fluoro-17-(hydroxyimino)-13-methyl-7,8,9,11,12,13,14,15,16,17-decahydro-6H-cyclopenta[a]phenanthren-15-yl)-N-(pyrazin-2-yl)propanamide] | 3 | 26 | 53 |
| C[C@]12CCC3c4cccc(F)c4CCC3C1[C@H](CCC(=O)N1CCC3(CCOCC3)C1)C/C2=N\O (stereo partly drawn) [Compound 128, 3-((13S,15R,E)-4-fluoro-17-(hydroxyimino)-13-methyl-7,8,9,11,12,13,14,15,16,17-decahydro-6H-cyclopenta[a]phenanthren-15-yl)-1-(8-oxa-2-azaspiro[4.5]decan-2-yl)propan-1-one] | 6 | 2 | 59 |
